Structures can show the parent of a compound that is named as a salt. Where two headings read alike, the source gives them in different places.
Biological target: T1, recombinant full-length USP7 (Homo sapiens, UniProt Q93009)
T1 construct: A 25 μl reaction volume containing recombinant full-length USP7 (62 pM)
Assay: USP7-mediated ubiquitin-rhodamine cleavage assay
Assay type: biochemical
Conditions: recombinant full-length USP7 62 pM, ubiquitin-rhodamine 100 nM, 1 hour reaction at room temperature
Summary of the method: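 After compound and enzyme (62 pM) sat together 30 min at RT, 100 nM fluorogenic ubiquitin-rhodamine substrate was added for 1 h protected from light. Acetic acid quenched the reaction prior to the fluorescence read.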

[1] = 30-minute incubation with compound, read-out: Potency: USP7 IC50
[2] = 30-minute incubation, read-out: Potency (USP7 IC50)
[3] = 30-minute pre-incubation, read-out: Potency (USP7 IC50)

T1 sequence (Q93009 whole entry): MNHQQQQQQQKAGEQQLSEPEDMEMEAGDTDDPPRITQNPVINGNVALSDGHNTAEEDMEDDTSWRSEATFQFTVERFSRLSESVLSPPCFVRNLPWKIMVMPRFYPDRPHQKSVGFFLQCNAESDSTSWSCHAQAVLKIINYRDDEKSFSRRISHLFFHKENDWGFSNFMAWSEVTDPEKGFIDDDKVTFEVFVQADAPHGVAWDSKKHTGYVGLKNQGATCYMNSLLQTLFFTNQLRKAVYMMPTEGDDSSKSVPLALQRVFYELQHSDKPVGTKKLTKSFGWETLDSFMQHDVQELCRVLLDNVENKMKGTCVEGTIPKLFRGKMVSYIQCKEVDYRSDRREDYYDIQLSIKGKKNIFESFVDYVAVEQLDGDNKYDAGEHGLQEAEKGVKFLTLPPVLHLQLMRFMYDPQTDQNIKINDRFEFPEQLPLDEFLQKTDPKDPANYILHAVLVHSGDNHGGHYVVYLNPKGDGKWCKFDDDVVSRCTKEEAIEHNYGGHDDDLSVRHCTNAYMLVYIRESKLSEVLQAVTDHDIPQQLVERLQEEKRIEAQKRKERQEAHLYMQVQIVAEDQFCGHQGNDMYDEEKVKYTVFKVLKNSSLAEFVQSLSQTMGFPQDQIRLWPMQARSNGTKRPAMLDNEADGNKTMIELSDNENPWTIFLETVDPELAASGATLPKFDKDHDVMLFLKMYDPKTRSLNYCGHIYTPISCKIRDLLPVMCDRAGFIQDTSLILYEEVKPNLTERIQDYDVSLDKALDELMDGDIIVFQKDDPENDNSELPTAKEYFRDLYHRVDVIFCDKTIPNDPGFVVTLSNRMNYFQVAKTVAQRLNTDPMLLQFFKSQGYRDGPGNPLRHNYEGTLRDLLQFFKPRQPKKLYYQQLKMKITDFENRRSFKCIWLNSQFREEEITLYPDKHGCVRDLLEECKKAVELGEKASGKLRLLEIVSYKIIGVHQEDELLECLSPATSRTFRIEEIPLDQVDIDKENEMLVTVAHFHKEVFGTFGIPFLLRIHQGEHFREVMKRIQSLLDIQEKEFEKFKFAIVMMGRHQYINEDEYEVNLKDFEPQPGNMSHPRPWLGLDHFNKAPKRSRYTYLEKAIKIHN

SMILES | IC50 [1] | IC50 [3] | further results
Cc1cc(Cl)cc(-c2ccnc3cc(CN4C(=O)CCC4=O)sc23)c1O[C@@H]1CN[C@@H](CF)C1 [Example 101, 1-((7-(5-Chloro-2-(((3S,5R)-5-(fluoromethyl)pyrrolidin-3-yl)oxy)-3-methylphenyl)thieno[3,2-b]pyridin-2-yl)methyl)pyrrolidine-2,5-dione] | < 1000 nM | – | –
Cc1cc(Cl)cc(-c2ccnc3cc(CN4C(=O)CCCC4=O)sc23)c1O[C@H]1CCCNC1 [Example 237, (S)-1-((7-(5-Chloro-3-methyl-2-(piperidin-3-yloxy)phenyl)thieno[3,2-b]pyridin-2-yl)methyl)piperidine-2,6-dione] | < 1000 nM | – | –
Cc1cc(Cl)cc(-c2ccnc3cc(CN4C(=O)CCN(C)C4=O)sc23)c1O[C@@H]1CNC[C@@H]1F [Example 150, 3-((7-(5-Chloro-2-(((3R,4S)-4-fluoropyrrolidin-3-yl)oxy)-3-methylphenyl)thieno[3,2-b]pyridin-2-yl)methyl)-1-methyldihydropyrimidine-2,4(1H,3H)-dione] | < 1000 nM | – | –
Cc1cc(Cl)cc(-c2ccnc3cc(Cn4c(=O)ccn(CC(F)(F)F)c4=O)sc23)c1O[C@H]1C[C@@H]2NCCO[C@H]2C1 [Example 694, 3-[[7-[2-[[(4aS,6S,7aS)-2,3,4,4a,5,6,7,7a-octahydrocyclopenta[b][1,4]oxazin-6-yl]oxy]-5-chloro-3-methyl-phenyl]thieno[3,2-b]pyridin-2-yl]methyl]-1-(2,2,2-trifluoroethyl)pyrimidine-2,4-dione] | – | – | IC50 [2]: < 1000 nM
Cc1cc(Cl)cc(-c2ccnc3cc(Cn4c(=O)ccn(CC(F)(F)F)c4=O)sc23)c1OC1(C(F)(F)F)CCCNC1 (stereo not drawn) [Example 274, 3-((7-(5-Chloro-3-methyl-2-((3-(trifluoromethy)piperidin-3-yl)oxy)phenyl)thieno[3,2-b]pyridin-2-yl)methyl)-1-(2,2,2-trifluoroethyl)pyrimidine-2,4(1H,3H)-dione] | < 1000 nM | – | –
Cc1cc(Cl)cc(-c2ccnc3cc(CO)sc23)c1OC[C@H]1CCN1 [Example 16, (R)-(7-(2-(Azetidin-2-ylmethoxy)-5-chloro-3-methylphenyl)thieno[3,2-b]pyridin-2-yl)methanol] | 10000 to 30000 nM | – | –
Cc1cc(Cl)cc(-c2ccnc3cc(Cn4c(=O)ccn(C(C)C)c4=O)sc23)c1O[C@H]1CCC2NCCO[C@H]21 (stereo partly drawn) [Example 511, 4-[[7-[2-[[(7S,7aR)-2,3,4,4a,5,6,7,7a-octahydrocyclopenta[b][1,4]oxazin-7-yl]oxy]-5-chloro-3-methyl-phenyl]thieno[3,2-b]pyridin-2-yl]methyl]-1-isopropyl-pyrimidine-2,4-dione] | – | < 1000 nM | –
Cc1cc(Cl)cc(-c2ccnc3cc(CN4C(=O)C5C(C4=O)C5(C)C)sc23)c1O[C@@H]1CNCC[C@H]1C (stereo partly drawn) [Example 341, 3-[[7-[5-chloro-3-methyl-2-[[(3S,4R)-4-methyl-3-piperidyl]oxy]phenyl]thieno[3,2-b]pyridin-2-yl]methyl]-6,6-dimethyl-3-azabicyclo[3.1.0]hexane-2,4-dione] | < 1000 nM | – | –
Cc1cc(Cl)cc(-c2ncnc3cc(Cn4c(=O)ccn(C(C)C)c4=O)sc23)c1O[C@H]1CC[C@H](N)C1 [Example 542, 3-[[4-[2-[(1S,3S)-3-aminocyclopentoxy]-5-chloro-3-methyl-phenyl]thieno[3,2-d]pyrimidin-6-yl]methyl]-1-isopropyl-pyrimidine-2,4-dione; 2,2,2-trifluoroacetic acid] | – | < 1000 nM | –
Cc1cc(Cl)cc(-c2ccnc3cc([C@@H](C)N4C(=O)C5C(C4=O)C5(C)C)sc23)c1OC1CCC(C)NC1 (stereo partly drawn) [Example 397, 3-[(1R)-1-[7-[5-chloro-3-methyl-2-[(6-methyl-3-piperidyl)oxy]phenyl]thieno[3,2-b]pyridin-2-yl]ethyl]-6,6-dimethyl-3-azabicyclo[3.1.0]hexane-2,4-dione; 2,2,2-trifluoroacetic acid] | < 1000 nM | – | –
Cc1cc(Cl)cc(-c2ccnc3cc(CN4C(=O)CCC4=O)sc23)c1O[C@@H]1CNC[C@H]1F [Example 104, 1-((7-(5-Chloro-2-(((3R,4R)-4-fluoropyrrolidin-3-yl)oxy)-3-methylphenyl)thieno[3,2-b]pyridin-2-yl)methyl)pyrrolidine-2,5-dione] | < 1000 nM | – | –
Cc1cc(Cl)cc(-c2ncnc3cc(CN4C(=O)CCC4=O)sc23)c1O[C@H]1CC[C@H](C)NC1 [Example 338, 1-[[4-[5-chloro-3-methyl-2-[[(3S,6S)-6-methyl-3-piperidyl]oxy]phenyl]thieno[3,2-d]pyrimidin-6-yl]methyl]pyrrolidine-2,5-dione dihydrochloride] | < 1000 nM | – | –
Cc1cc(Cl)cc(-c2ccnc3cc(CO)sc23)c1O[C@@H]1CCC[C@H]1N(C)C [Example 92, (7-(5-Chloro-2-(((1R,2R)-2-(dimethylamino)cyclopentyl)oxy)-3-methylphenyl)thieno[3,2-b]pyridin-2-yl)methanol] | > 30000 nM | – | –
Cc1cc(Cl)cc(-c2ccnc3cc(Cn4c(=O)ccn(C)c4=O)sc23)c1O[C@@H]1CNC[C@@H]1F [Example 151, 3-((7-(5-Chloro-2-(((3R,4S)-4-fluoropyrrolidin-3-yl)oxy)-3-methylphenyl)thieno[3,2-b]pyridin-2-yl)methyl)-1-methylpyrimidine-2,4(1H,3H)-dione] | < 1000 nM | – | –
Cc1cc(Cl)cc(-c2ccnc3cc(Cn4c(=O)ccn(C)c4=O)sc23)c1O[C@@H]1CN[C@@H](C(=O)O)C1 [Example 599, (2R,4S)-4-[4-chloro-2-methyl-6-[2-[(3-methyl-2,6-dioxo-pyrimidin-1-yl)methyl]thieno[3,2-b]pyridin-7-yl]phenoxy]pyrrolidine-2-carboxylic acid] | – | < 1000 nM | –
Cc1cc(Cl)cc(-c2ccnc3cc(Cn4c(=O)ccn(CC(F)(F)F)c4=O)sc23)c1O[C@H]1CCNC[C@@H]1F [Example 559, 3-[[7-[5-chloro-2-[[(3S,4S)-3-fluoro-4-piperidyl]oxy]-3-methyl-phenyl]thieno[3,2-b]pyridin-2-yl]methyl]-1-(2,2,2-trifluoroethyl)pyrimidine-2,4-dione] | – | < 1000 nM | –
Cc1cc(Cl)cc(-c2ccnc3cc(CN4C(=O)CCN(C)C4=O)sc23)c1OC1CCNCC1 [Example 203, 3-((7-(5-Chloro-3-methyl-2-(piperidin-4-yloxy)phenyl)thieno[3,2-b]pyridin-2-yl)methyl)-1-methyldihydropyrimidine-2,4(1H,3H)-dione] | < 1000 nM | – | –
Cc1cc(Cl)cc(-c2ccnc3cc(Cn4c(=O)ccn(CC(F)(F)F)c4=O)sc23)c1OC1(C)CCCNC1 (stereo not drawn) [Example 639, 3-[[7-[5-chloro-3-methyl-2-[(3-methyl-3-piperidyl)oxy]phenyl]thieno[3,2-b]pyridin-2-yl]methyl]-1-(2,2,2-trifluoroethyl)pyrimidine-2,4-dione] | – | < 1000 nM | –
Cc1cc(Cl)cc(-c2ccnc3cc(Cn4c(=O)ccn(CC(F)(F)F)c4=O)sc23)c1OCCN1CCOCC1 [Example 662, 3-[[7-[5-chloro-3-methyl-2-(2-morpholinoethoxy)phenyl]thieno[3,2-b]pyridin-2-yl]methyl]-1-(2,2,2-trifluoroethyl)pyrimidine-2,4-dione; 2,2,2-trifluoroacetic acid] | – | < 1000 nM | –
Cc1cc(Cl)cc(-c2ccnc3cc(CN4C(=O)CCC4=O)sc23)c1O[C@@H]1CN(C(C)C)C[C@@H]1F [Example 323, 1-[[7-[5-chloro-2-[(3R,4S)-4-fluoro-1-isopropyl-pyrrolidin-3-yl]oxy-3-methyl-phenyl]thieno[3,2-b]pyridin-2-yl]methyl]pyrrolidine-2,5-dione] | < 1000 nM | – | –
Cc1cc(Cl)cc(-c2ccnc3cc(Cn4c(=O)ccn(C)c4=O)sc23)c1O[C@@H]1CN(C)C[C@@H]1F [Example 458, 3-[[7-[5-chloro-2-[(3R,4S)-4-fluoro-1-methyl-pyrrolidin-3-yl]oxy-3-methyl-phenyl]thieno[3,2-b]pyridin-2-yl]methyl]-1-methyl-pyrimidine-2,4-dione; 2,2,2-trifluoroacetic acid] | – | < 1000 nM | –
Cc1cc(Cl)cc(-c2ccnc3cc(Cn4c(=O)c(F)cn(C(C)C)c4=O)sc23)c1O[C@H]1CCCNC1 [Example 547, 3-[[7-[5-chloro-3-methyl-2-[[(3S)-3-piperidyl]oxy]phenyl]thieno[3,2-b]pyridin-2-yl]methyl]-5-fluoro-1-isopropyl-pyrimidine-2,4-dione] | – | < 1000 nM | –
Cc1cc(Cl)cc(-c2ccnc3cc(CN4C(=O)CCC4=O)sc23)c1OC1CC(N)C1 (stereo not drawn) [Example 413, 1-[[7-[2-(3-aminocyclobutoxy)-5-chloro-3-methyl-phenyl]thieno[3,2-b]pyridin-2-yl]methyl]pyrrolidine-2,5-dione dihydrochloride] | – | < 1000 nM | –
Cc1cc(Cl)cc(-c2ccnc3cc(CN4C(=O)C5C(C4=O)C5(C)C)sc23)c1OC1CCNC1(C)C (stereo not drawn) [Example 368, 3-[[7-[5-chloro-2-(2,2-dimethylpyrrolidin-3-yl)oxy-3-methyl-phenyl]thieno[3,2-b]pyridin-2-yl]methyl]-6,6-dimethyl-3-azabicyclo[3.1.0]hexane-2,4-dione] | < 1000 nM | – | –
Cc1cc(Cl)cc(-c2ccnc3cc(Cn4c(=O)ccn(CC(F)(F)F)c4=O)sc23)c1OC1CC2(COCCN2)C1 (stereo not drawn) [Example 698, 3-[[7-[5-chloro-3-methyl-2-(8-oxa-5-azaspiro[3.5]nonan-2-yloxy)phenyl]thieno[3,2-b]pyridin-2-yl]methyl]-1-(2,2,2-trifluoroethyl)pyrimidine-2,4-dione] | – | – | IC50 [2]: < 1000 nM
Cc1cc(Cl)cc(-c2ccnc3cc(Cn4c(=O)ccn(C)c4=O)sc23)c1O[C@H]1CCN(C)C(C)(C)C1 [Example 490] | – | < 1000 nM | –
Cc1cc(Cl)cc(-c2ccnc3cc(CN4C(=O)CCC4=O)sc23)c1O[C@@H]1CNCC[C@@H]1C [Example 243, 1-((7-(5-Chloro-3-methyl-2-(((3S,4S)-4-methylpiperidin-3-yl)oxy)phenyl)thieno[3,2-b]pyridin-2-yl)methyl)pyrrolidine-2,5-dione] | < 1000 nM | – | –

Reference: US10722514B2 (FLX Bio, Inc., priority 2017, dated 2020)
